Patent US20240360177A1, “PEPTIDES WITH ANTIMICROBIAL ACTIVITIES” (priority 2021, published 2024)
Converted amounts (≈) assume the structure as drawn. Where two headings read alike, the source gives them in different places. Non-standard residues stand in square brackets, D forms with d. Residues, ends and D or L forms follow the SMILES beside them. hArg = N=C(N)NCCCC[C@H](N)C(=O)O; 4Pal = N[C@@H](Cc1ccncc1)C(=O)O; hLeu = CC(C)CC[C@H](N)C(=O)O; Inp = O=C(O)C1CCNCC1; Ava = NCCCCC(=O)O

Assays:
C. neoformans = details: 72 h
C. gattii = details: 72 h
[1] = N = 15 strains, 24 h (Table 13)
[2] = N = 15 strains, 48 h (Table 13)

| Compound | MIC C. albicans (C. albicans; 24 h) [µg/mL] | MIC C. glabrata (C. glabrata; 24 h) [µg/mL] | MIC C. parapsilosis (C. parapsilosis; 24 h) [µg/mL] | MIC C. krusei (C. krusei; 24 h) [µg/mL] | MIC C. auris (C. auris; 24 h) [µg/mL] | MIC C. tropicalis (C. tropicalis; 24 h) [µg/mL] | MIC C. dubliniensis (C. dubliniensis; 24 h) [µg/mL] | further results |
| --- | --- | --- | --- | --- | --- | --- | --- | --- |
| N=C(N)NCCC[C@@H](N)C(=O)N[C@@H](CCCNC(=N)N)C(=O)N[C@H](CCCNC(=N)N)C(=O)N[C@H](CCCNC(=N)N)C(=O)N[C@@H](CCCNC(=N)N)C(=O)N[C@H](CCCNC(=N)N)C(=O)N[C@H](CCCNC(=N)N)C(=O)N[C@@H](CCCNC(=N)N)C(=O)N[C@H](CCCNC(=N)N)C(=O)N[C@@H](CCCNC(=N)N)C(=O)N[C@H](CCCNC(=N)N)C(=O)N[C@@H](CCCNC(=N)N)C(=O)N[C@H](CCCNC(=N)N)C(=O)N[C@@H](CCCNC(=N)N)C(N)=O [14 Polyarginine, rRrrRrrRrRrRrR-NH2, reference compound] | – | – | – | – | – | – | – | Activity at 24 h MIC50 against Candida spp. (Candida spp.; [1]): 0.5 µg/mL; Activity at 24 h MIC90 against Candida spp. (Candida spp.; [1]): 8 µg/mL; Activity at 48 h MIC50 against Candida spp. (Candida spp.; [2]): 0.5 µg/mL; Activity at 48 h MIC90 against Candida spp. (Candida spp.; [2]): >32 µg/mL |
| N=C(N)NCCC[C@@H](N)C(=O)N[C@@H](CCCNC(=N)N)C(=O)N[C@H](CCCNC(=N)N)C(=O)N[C@@H](CCCNC(=N)N)C(=O)N[C@H](CCCNC(=N)N)C(=O)N1CCC[C@H]1C(=O)N[C@H](CCCNC(=N)N)C(=O)N[C@@H](CCCNC(=N)N)C(=O)N[C@H](CCCNC(=N)N)C(=O)N[C@@H](CCCNC(=N)N)C(=O)N[C@H](CCCNC(=N)N)C(=O)N1CCC[C@H]1C(=O)N[C@H](CCCNC(=N)N)C(=O)N[C@@H](CCCNC(=N)N)C(=O)N[C@H](CCCNC(=N)N)C(=O)N[C@@H](CCCNC(=N)N)C(N)=O [SEQ ID NO: 61, rRrRr-P-rRrRr-P-rRrR-NH2] (H-[dR]R[dR]R[dR]P[dR]R[dR]R[dR]P[dR]R[dR]R-NH2) | 0.25 (≈ 0.104 µM) | 0.5 (≈ 0.209 µM) | 0.25 (≈ 0.104 µM) | 0.5 (≈ 0.209 µM) | 1 (≈ 0.417 µM) | 0.25 (≈ 0.104 µM) | 0.25 (≈ 0.104 µM) | Activity at 24 h MIC50 against Candida spp. (Candida spp.; 24 h): 0.5 µg/mL; Activity at 24 h MIC90 against Candida spp. (Candida spp.; 24 h): 1 µg/mL; Activity at 48 h MIC50 against Candida spp. (Candida spp.; 48 h): 0.5 µg/mL; Activity at 48 h MIC90 against Candida spp. (Candida spp.; 48 h): 16 µg/mL |
| N=C(N)NCCC[C@@H](N)C(=O)N[C@@H](CCCNC(=N)N)C(=O)N[C@H](CCCNC(=N)N)C(=O)N1CCC(C(=O)N[C@H](CCCNC(=N)N)C(=O)N[C@@H](CCCNC(=N)N)C(=O)N[C@H](CCCNC(=N)N)C(=O)N2CCC(C(=O)N[C@H](CCCNC(=N)N)C(=O)N[C@@H](CCCNC(=N)N)C(=O)N[C@H](CCCNC(=N)N)C(=O)N[C@@H](CCCNC(=N)N)C(=O)N3CCC(C(=O)N[C@H](CCCNC(=N)N)C(=O)N[C@@H](CCCNC(=N)N)C(=O)N[C@H](CCCNC(=N)N)C(=O)N[C@@H](CCCNC(=N)N)C(N)=O)CC3)CC2)CC1 [SEQ ID NO: 74, rRr-(Inp)-rRr-(Inp)-rRrR-(Inp)-rRrR-NH2] (H-[dR]R[dR][Inp][dR]R[dR][Inp][dR]R[dR]R[Inp][dR]R[dR]R-NH2) | 0.5 (≈ 0.197 µM) | 0.5 (≈ 0.197 µM) | 0.25 (≈ 0.0985 µM) | 1 (≈ 0.394 µM) | 0.5 (≈ 0.197 µM) | 0.5 (≈ 0.197 µM) | 0.5 (≈ 0.197 µM) | – |
| N=C(N)NCCC[C@@H](N)C(=O)N[C@@H](CCCNC(=N)N)C(=O)N[C@H](CCCNC(=N)N)C(=O)N[C@@H](Cc1ccncc1)C(=O)N[C@H](CCCNC(=N)N)C(=O)N[C@@H](CCCNC(=N)N)C(=O)N[C@H](CCCNC(=N)N)C(=O)N[C@@H](Cc1ccncc1)C(=O)N[C@H](CCCNC(=N)N)C(=O)N[C@@H](CCCNC(=N)N)C(=O)N[C@H](CCCNC(=N)N)C(=O)N[C@@H](CCCNC(=N)N)C(=O)N[C@@H](Cc1ccncc1)C(=O)N[C@H](CCCNC(=N)N)C(=O)N[C@@H](CCCNC(=N)N)C(=O)N[C@H](CCCNC(=N)N)C(=O)N[C@@H](CCCNC(=N)N)C(N)=O [SEQ ID NO: 77, rRr-(4-PyrAla)-rRr-(4-PyrAla)-rRrR-(4-PyrAla)-rRrR-NH2] (H-[dR]R[dR][4Pal][dR]R[dR][4Pal][dR]R[dR]R[4Pal][dR]R[dR]R-NH2) | 0.5 (≈ 0.189 µM) | 0.5 (≈ 0.189 µM) | 0.25 (≈ 0.0944 µM) | 0.5 (≈ 0.189 µM) | 0.5 (≈ 0.189 µM) | 0.5 (≈ 0.189 µM) | 0.5 (≈ 0.189 µM) | – |
| N=C(N)NCCC[C@@H](N)C(=O)N[C@@H](CCCNC(=N)N)C(=O)N[C@@H](Cc1ccncc1)C(=O)N[C@H](CCCNC(=N)N)C(=O)N[C@@H](CCCNC(=N)N)C(=O)N[C@@H](Cc1ccncc1)C(=O)N[C@H](CCCNC(=N)N)C(=O)N[C@@H](CCCNC(=N)N)C(=O)N[C@H](CCCNC(=N)N)C(=O)N[C@@H](Cc1ccncc1)C(=O)N[C@H](CCCNC(=N)N)C(=O)N[C@@H](CCCNC(=N)N)C(=O)N[C@H](CCCNC(=N)N)C(N)=O [SEQ ID NO: 78, rR-(4-PyrAla)-rR-(4-PyrAla)-rRr-(4-PyrAla)-rRr-NH2] (H-[dR]R[4Pal][dR]R[4Pal][dR]R[dR][4Pal][dR]R[dR]-NH2) | 0.5 (≈ 0.247 µM) | 0.5 (≈ 0.247 µM) | 0.25 (≈ 0.124 µM) | 1 (≈ 0.494 µM) | 16 (≈ 7.91 µM) | 0.5 (≈ 0.247 µM) | 0.25 (≈ 0.124 µM) | – |
| N=C(N)NCCCC[C@H](NC(=O)[C@@H](CCCNC(=N)N)NC(=O)[C@H](CCCCNC(=N)N)NC(=O)[C@@H](CCCNC(=N)N)NC(=O)CCCCNC(=O)[C@H](CCCCNC(=N)N)NC(=O)[C@@H](CCCNC(=N)N)NC(=O)[C@H](CCCCNC(=N)N)NC(=O)[C@@H](CCCNC(=N)N)NC(=O)CCCCNC(=O)[C@@H](CCCNC(=N)N)NC(=O)[C@H](CCCCNC(=N)N)NC(=O)[C@@H](CCCNC(=N)N)NC(=O)CCCCNC(=O)[C@@H](CCCNC(=N)N)NC(=O)[C@H](CCCCNC(=N)N)NC(=O)[C@H](N)CCCNC(=N)N)C(N)=O [SEQ ID NO: 89, r(Har)r-(Ava)-r(Har)r-(Ava)-r(Har)r(Har)-(Ava)-r(Har)r(Har)-NH2] (H-[dR][hArg][dR][Ava][dR][hArg][dR][Ava][dR][hArg][dR][hArg][Ava][dR][hArg][dR][hArg]-NH2) | 1 (≈ 0.387 µM) | 1 (≈ 0.387 µM) | 0.5 (≈ 0.193 µM) | 1 (≈ 0.387 µM) | 0.5 (≈ 0.193 µM) | 1 (≈ 0.387 µM) | 1 (≈ 0.387 µM) | MIC C. neoformans (C. neoformans): 0.25 µg/mL (≈ 0.0967 µM); MIC C. gattii (C. gattii): 0.25 µg/mL (≈ 0.0967 µM) |
| CC(C)CC[C@H](N)C(=O)N[C@@H](CCCNC(=N)N)C(=O)N[C@H](CCCNC(=N)N)C(=O)N1CCC[C@H]1C(=O)N[C@H](CCCNC(=N)N)C(=O)N[C@@H](CCCNC(=N)N)C(=O)N[C@H](CCCNC(=N)N)C(=O)N1CCC[C@H]1C(=O)N[C@H](CCCNC(=N)N)C(=O)N[C@@H](CCCNC(=N)N)C(=O)N[C@H](CCCNC(=N)N)C(=O)N[C@@H](CCCNC(=N)N)C(=O)N1CCC[C@H]1C(=O)N[C@H](CCCNC(=N)N)C(=O)N[C@@H](CCCNC(=N)N)C(=O)N[C@H](CCCNC(=N)N)C(=O)N[C@@H](CCCNC(=N)N)C(N)=O [SEQ ID NO: 94, (hLeu)Rr-P-rRr-P-rRrR-P-rRrR-NH2] (H-[hLeu]R[dR]P[dR]R[dR]P[dR]R[dR]RP[dR]R[dR]R-NH2) | 0.5 (≈ 0.203 µM) | 0.5 (≈ 0.203 µM) | 0.25 (≈ 0.101 µM) | 1 (≈ 0.406 µM) | 1 (≈ 0.406 µM) | 0.5 (≈ 0.203 µM) | 0.5 (≈ 0.203 µM) | – |
| rRr-(Apg)-rRr-(Apg)-rRrR-(Apg)-rRrR-NH2 [SEQ ID NO: 38] | 0.5 | 1 | 0.25 | 0.25 | 2 | 0.5 | 0.5 | – |
| rRr-(Igl)-rRr-(Igl)-rRrR-(Igl)-rRrR-NH2 [SEQ ID NO: 75] | – | – | – | – | – | – | – | MIC C. albicans (C. albicans): 0.5 µg/mL; MIC C. glabrata (C. glabrata): 0.5 µg/mL; MIC C. parapsilosis (C. parapsilosis): 0.5 µg/mL; MIC C. krusei (C. krusei): 0.5 µg/mL; MIC C. auris (C. auris): 0.5 µg/mL; MIC C. tropicalis (C. tropicalis): 0.5 µg/mL; MIC C. dubliniensis (C. dubliniensis): 0.5 µg/mL |
